Assay: mn = molality of the nth substance listed, in mol/kg
Settings: Liquid

O=[N+]([O-])[O-].[Li+] [lithium nitrate] + CO
Settings | mass density [kg/m3]
348.25 K, 312 kPa, m1 = 3.614 | 887.13
348.25 K, 318 kPa, m1 = 1.803 | 819.91
348.25 K, 325 kPa, m1 = 0.5393 | 764.85
348.25 K, 4991 kPa, m1 = 0.5393 | 770.52
348.25 K, 5006 kPa, m1 = 3.614 | 891.37
348.25 K, 5009 kPa, m1 = 1.803 | 824.85
348.25 K, 9982 kPa, m1 = 3.614 | 895.64
348.25 K, 10005 kPa, m1 = 1.803 | 829.8
348.25 K, 10014 kPa, m1 = 0.5393 | 776.21
348.25 K, 14983 kPa, m1 = 1.803 | 834.47
348.25 K, 14987 kPa, m1 = 0.5393 | 781.48
348.25 K, 15007 kPa, m1 = 3.614 | 899.77
348.25 K, 19991 kPa, m1 = 1.803 | 838.93
348.25 K, 19995 kPa, m1 = 3.614 | 903.68
348.25 K, 20004 kPa, m1 = 0.5393 | 786.51
348.25 K, 24984 kPa, m1 = 1.803 | 843.17
348.25 K, 24990 kPa, m1 = 3.614 | 907.45
348.25 K, 25002 kPa, m1 = 0.5393 | 791.23
348.25 K, 29989 kPa, m1 = 0.5393 | 795.72
348.25 K, 29996 kPa, m1 = 3.614 | 911.08
348.25 K, 30007 kPa, m1 = 1.803 | 847.26
348.25 K, 34987 kPa, m1 = 0.5393 | 800.01
348.25 K, 34994 kPa, m1 = 3.614 | 914.59
348.25 K, 34996 kPa, m1 = 1.803 | 851.13
348.25 K, 39988 kPa, m1 = 0.5393 | 804.12
348.25 K, 39995 kPa, m1 = 1.803 | 854.88
348.25 K, 40008 kPa, m1 = 3.614 | 917.97
373.15 K, 572 kPa, m1 = 0.1551 | 719.83
373.15 K, 578 kPa, m1 = 0.8904 | 757.09
373.15 K, 627 kPa, m1 = 0.2943 | 727.47
373.15 K, 4896 kPa, m1 = 0.1551 | 726.23
373.15 K, 4896 kPa, m1 = 0.8904 | 762.68
373.15 K, 5038 kPa, m1 = 0.2943 | 733.83
373.15 K, 10365 kPa, m1 = 0.2943 | 741.1
373.15 K, 10738 kPa, m1 = 0.1551 | 734.38
373.15 K, 10738 kPa, m1 = 0.8904 | 769.86
373.15 K, 15238 kPa, m1 = 0.1551 | 740.28
373.15 K, 15238 kPa, m1 = 0.8904 | 775.11
373.15 K, 15875 kPa, m1 = 0.2943 | 748.15
373.15 K, 20369 kPa, m1 = 0.2943 | 753.53
373.15 K, 21035 kPa, m1 = 0.1551 | 747.38
373.15 K, 21035 kPa, m1 = 0.8904 | 781.49
373.15 K, 25124 kPa, m1 = 0.1551 | 752.05
373.15 K, 25124 kPa, m1 = 0.8904 | 785.73
373.15 K, 25852 kPa, m1 = 0.2943 | 759.66
373.15 K, 30147 kPa, m1 = 0.2943 | 764.13
373.15 K, 30418 kPa, m1 = 0.1551 | 757.68
373.15 K, 30418 kPa, m1 = 0.8904 | 790.91
373.15 K, 35753 kPa, m1 = 0.2943 | 769.52
373.15 K, 35984 kPa, m1 = 0.1551 | 763.11
373.15 K, 35984 kPa, m1 = 0.8904 | 795.98
373.15 K, 39901 kPa, m1 = 0.1551 | 766.61
373.15 K, 39901 kPa, m1 = 0.8904 | 799.31
373.15 K, 39951 kPa, m1 = 0.2943 | 773.22
373.27 K, 528 kPa, m1 = 3.614 | 865.29
373.27 K, 532 kPa, m1 = 1.803 | 796.7
373.27 K, 4988 kPa, m1 = 1.803 | 802.12
373.27 K, 5015 kPa, m1 = 3.614 | 869.9
373.27 K, 9996 kPa, m1 = 1.803 | 807.82
373.27 K, 10010 kPa, m1 = 3.614 | 874.76
373.27 K, 14985 kPa, m1 = 1.803 | 813.14
373.27 K, 14994 kPa, m1 = 3.614 | 879.35
373.27 K, 19990 kPa, m1 = 1.803 | 818.17
373.27 K, 19991 kPa, m1 = 3.614 | 883.74
373.27 K, 24989 kPa, m1 = 1.803 | 822.92
373.27 K, 24995 kPa, m1 = 3.614 | 887.93
373.27 K, 29999 kPa, m1 = 3.614 | 891.95
373.27 K, 30013 kPa, m1 = 1.803 | 827.46
373.27 K, 34987 kPa, m1 = 3.614 | 895.79
373.27 K, 35004 kPa, m1 = 1.803 | 831.77
373.27 K, 39994 kPa, m1 = 3.614 | 899.5
373.27 K, 39997 kPa, m1 = 1.803 | 835.89
373.28 K, 542 kPa, m1 = 0.5393 | 739.72
373.28 K, 4986 kPa, m1 = 0.5393 | 746.09
373.28 K, 9996 kPa, m1 = 0.5393 | 752.7
373.28 K, 14984 kPa, m1 = 0.5393 | 758.8
373.28 K, 20003 kPa, m1 = 0.5393 | 764.52
373.28 K, 24985 kPa, m1 = 0.5393 | 769.85
373.28 K, 29993 kPa, m1 = 0.5393 | 774.9
373.28 K, 35001 kPa, m1 = 0.5393 | 779.7
373.28 K, 39997 kPa, m1 = 0.5393 | 784.24
398.15 K, 1035 kPa, m1 = 0.2943 | 699.13
398.15 K, 1138 kPa, m1 = 0.8904 | 730.97
398.15 K, 1432 kPa, m1 = 0.1551 | 691.82
398.15 K, 5023 kPa, m1 = 0.8904 | 736.91
398.15 K, 5126 kPa, m1 = 0.1551 | 698.39
398.15 K, 5236 kPa, m1 = 0.2943 | 706.42
398.15 K, 10058 kPa, m1 = 0.8904 | 744.23
398.15 K, 10628 kPa, m1 = 0.1551 | 707.59
398.15 K, 10698 kPa, m1 = 0.2943 | 715.31
398.15 K, 15234 kPa, m1 = 0.1551 | 714.77
398.15 K, 15573 kPa, m1 = 0.8904 | 751.75
398.15 K, 15874 kPa, m1 = 0.2943 | 723.14
398.15 K, 20035 kPa, m1 = 0.8904 | 757.46
398.15 K, 20452 kPa, m1 = 0.2943 | 729.57
398.15 K, 21035 kPa, m1 = 0.1551 | 723.12
398.15 K, 25069 kPa, m1 = 0.8904 | 763.49
398.15 K, 25235 kPa, m1 = 0.2943 | 735.81
398.15 K, 26078 kPa, m1 = 0.1551 | 729.75
398.15 K, 30027 kPa, m1 = 0.1551 | 734.55
398.15 K, 30047 kPa, m1 = 0.8904 | 769.04
398.15 K, 30385 kPa, m1 = 0.2943 | 741.96
398.15 K, 35256 kPa, m1 = 0.2943 | 747.26
398.15 K, 35845 kPa, m1 = 0.8904 | 774.96
398.15 K, 35941 kPa, m1 = 0.1551 | 741.06
398.15 K, 39127 kPa, m1 = 0.2943 | 751.09
398.15 K, 39254 kPa, m1 = 0.8904 | 778.18
398.15 K, 39789 kPa, m1 = 0.1551 | 744.86
398.28 K, 900 kPa, m1 = 3.614 | 842.05
398.28 K, 4994 kPa, m1 = 3.614 | 846.92
398.28 K, 10001 kPa, m1 = 3.614 | 852.52
398.28 K, 14988 kPa, m1 = 3.614 | 857.76
398.28 K, 19997 kPa, m1 = 3.614 | 862.72
398.28 K, 24994 kPa, m1 = 3.614 | 867.42
398.28 K, 29993 kPa, m1 = 3.614 | 871.89
398.28 K, 34991 kPa, m1 = 3.614 | 876.17
398.28 K, 39987 kPa, m1 = 3.614 | 880.27
398.29 K, 904 kPa, m1 = 0.5393 | 712.1
398.29 K, 906 kPa, m1 = 1.803 | 771.63
398.29 K, 4994 kPa, m1 = 1.803 | 777.53
398.29 K, 4996 kPa, m1 = 0.5393 | 719.24
398.29 K, 9985 kPa, m1 = 0.5393 | 727.14
398.29 K, 9986 kPa, m1 = 1.803 | 784.19
398.29 K, 14989 kPa, m1 = 1.803 | 790.36
398.29 K, 15010 kPa, m1 = 0.5393 | 734.37
398.29 K, 19986 kPa, m1 = 1.803 | 796.11
398.29 K, 20018 kPa, m1 = 0.5393 | 740.98
398.29 K, 24995 kPa, m1 = 1.803 | 801.52
398.29 K, 25002 kPa, m1 = 0.5393 | 747.09
398.29 K, 29986 kPa, m1 = 1.803 | 806.59
398.29 K, 30001 kPa, m1 = 0.5393 | 752.82
398.29 K, 34984 kPa, m1 = 0.5393 | 758.22
398.29 K, 34988 kPa, m1 = 1.803 | 811.42
398.29 K, 39996 kPa, m1 = 0.5393 | 763.34
398.29 K, 40001 kPa, m1 = 1.803 | 816.03
